The record followed here is the supplement of paper PMC10477900.

Assay [1] relates to HCT116. As to conditions: 72 h. How it is done:
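HCT116 control and MTA1-KO (CRISPR) HCT116 cells were seeded in 384-well plates (800 cells/well), treated 16 h later with 237 metabolism-related anticancer drugs at five doses (10 uM, 2 uM, 400 nM, 80 nM, 16 nM) for 72 h, two replicates; viability by CCK8. Values are % inhibition of viability relative to untreated cells, plus fitted IC50.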

Assay [2] has as its system HCT116. Nature of the assay: viability inhibition vs untreated; higher = more cytotoxic. As to conditions: 72 h.

Structures are written as SMILES. Counter-ions that a name gives are not always drawn.

Usually IC50 stands for the concentration needed to halve the response being measured. For `C[C@]12CC[C@H]3[C@@H](CC[C@@]45O[C@@H]4C(O)=C(C#N)C[C@]35C)[C@@H]1CC[C@@H]2O` [Trilostane], the concentration for half-maximal inhibition (IC50) in assay [1] (genotype: MTA1-KO) and in assay [1] (genotype: control) was greater than 10 µM each time. Further, the viability inhibition in assay [2] (genotype: MTA1-KO, 16 nM) was -17%; in assay [2] (genotype: MTA1-KO, 80 nM) it was -18.6%; in assay [2] (genotype: MTA1-KO, 400 nM), -14.1%; in assay [2] (genotype: MTA1-KO, 2000 nM) it was -30.8%; in assay [2] (genotype: MTA1-KO, 10000 nM) it was -28.2%; in assay [2] (genotype: control, 16 nM), 8.35%. For the same compound, the viability inhibition in assay [2] (genotype: control, 80 nM) was 7.91%; in assay [2] (genotype: control, 400 nM) it was 2.11%; in assay [2] (genotype: control, 2000 nM), -10.9%; in assay [2] (genotype: control, 10000 nM), -4.61%.

For `CC(C)[C@]12O[C@H]1[C@@H]1O[C@]13[C@]1(O[C@H]1C[C@H]1C4=C(CC[C@@]13C)C(=O)OC4)[C@@H]2O` [Triptolide], the IC50 in assay [1] (genotype: MTA1-KO) and in assay [1] (genotype: control) was less than 0.016 µM each time. Besides, the viability inhibition in assay [2] (genotype: MTA1-KO, 16 nM) stood at 58.4%; in assay [2] (genotype: MTA1-KO, 80 nM), 92.8%; in assay [2] (genotype: MTA1-KO, 400 nM), 88.9%; in assay [2] (genotype: MTA1-KO, 2000 nM) it was 90.8%; in assay [2] (genotype: MTA1-KO, 10000 nM), 92.2%; in assay [2] (genotype: control, 16 nM), 67.7%. Also, the viability inhibition in assay [2] (genotype: control, 80 nM) was 105%; in assay [2] (genotype: control, 400 nM), 90.1%; in assay [2] (genotype: control, 2000 nM), 89.5%; in assay [2] (genotype: control, 10000 nM), 91.8%.

On to `NS(=O)(=O)c1ccc(NC(=O)Nc2ccc(F)cc2)cc1` [U104], for which the IC50 in assay [1] (genotype: MTA1-KO) and in assay [1] (genotype: control) was greater than 10 µM throughout. The viability inhibition was -21.7% in assay [2] (genotype: MTA1-KO, 16 nM); -21.1% in assay [2] (genotype: MTA1-KO, 80 nM); -25.6% in assay [2] (genotype: MTA1-KO, 400 nM); -26.9% in assay [2] (genotype: MTA1-KO, 2000 nM); -10.5% in assay [2] (genotype: MTA1-KO, 10000 nM); -3.77% in assay [2] (genotype: control, 16 nM). In addition, the viability inhibition in assay [2] (genotype: control, 80 nM) was -10.5%; in assay [2] (genotype: control, 400 nM), -6.63%; in assay [2] (genotype: control, 2000 nM), -1.16%; in assay [2] (genotype: control, 10000 nM), 4.44%.

Turning to `N#C/C(=C\c1cn(-c2ccccc2)c2ccccc12)C(=O)O` [UK5099], the half-maximal inhibitory concentration (IC50) in assay [1] (genotype: MTA1-KO) and in assay [1] (genotype: control) was greater than 10 µM throughout. For the same compound, the viability inhibition was 12.9% in assay [2] (genotype: MTA1-KO, 16 nM); -2.58% in assay [2] (genotype: MTA1-KO, 80 nM); -5.75% in assay [2] (genotype: MTA1-KO, 400 nM); -0.99% in assay [2] (genotype: MTA1-KO, 2000 nM); 14% in assay [2] (genotype: MTA1-KO, 10000 nM); 8.77% in assay [2] (genotype: control, 16 nM). Moreover, the viability inhibition in assay [2] (genotype: control, 80 nM) was 3.74%; in assay [2] (genotype: control, 400 nM), 4.2%; in assay [2] (genotype: control, 2000 nM), 20.2%; in assay [2] (genotype: control, 10000 nM), 40%.

Regarding `NC(N)=O` [Urea], the half-inhibitory concentration (IC50) in assay [1] (genotype: MTA1-KO) and in assay [1] (genotype: control) was greater than 10 µM in each case. The viability inhibition in assay [2] (genotype: MTA1-KO, 16 nM) is -19%; in assay [2] (genotype: MTA1-KO, 80 nM), -12.8%; in assay [2] (genotype: MTA1-KO, 400 nM) it was -10.1%; in assay [2] (genotype: MTA1-KO, 2000 nM) it was -15.4%; in assay [2] (genotype: MTA1-KO, 10000 nM) it was -12.3%; in assay [2] (genotype: control, 16 nM), 5.26%. Further, the viability inhibition in assay [2] (genotype: control, 80 nM) was 1.82%; in assay [2] (genotype: control, 400 nM), -7.36%; in assay [2] (genotype: control, 2000 nM), 3.6%; in assay [2] (genotype: control, 10000 nM) it was -3.54%.

For the compound `COc1cccc(-c2ccc(NC(=O)C3=C(C(=O)O)CCC3)c(F)c2)c1` [Vidofludimus], the half-inhibitory concentration (IC50) is 7.17 µM in assay [1] (genotype: MTA1-KO) and 8.85 µM in assay [1] (genotype: control). The viability inhibition was determined as 16.3% in assay [2] (genotype: MTA1-KO, 16 nM); 14.4% in assay [2] (genotype: MTA1-KO, 80 nM); 15.2% in assay [2] (genotype: MTA1-KO, 400 nM); 18.4% in assay [2] (genotype: MTA1-KO, 2000 nM); 72.5% in assay [2] (genotype: MTA1-KO, 10000 nM); 14.5% in assay [2] (genotype: control, 16 nM). Also, the viability inhibition was found to be 16.4% in assay [2] (genotype: control, 80 nM); 19.6% in assay [2] (genotype: control, 400 nM); 28.3% in assay [2] (genotype: control, 2000 nM); 60.9% in assay [2] (genotype: control, 10000 nM).

For the compound `CNC(=O)c1cccc(-c2ccc3c(N4CCOC[C@@H]4C)nc(N4CCOC[C@@H]4C)nc3n2)c1` [Vistusertib], the IC50 in assay [1] (genotype: MTA1-KO) came out at 0.189 µM; in assay [1] (genotype: control), 0.319 µM. Moreover, the viability inhibition in assay [2] (genotype: MTA1-KO, 16 nM) is 16.2%; in assay [2] (genotype: MTA1-KO, 80 nM), 29.8%; in assay [2] (genotype: MTA1-KO, 400 nM), 63.1%; in assay [2] (genotype: MTA1-KO, 2000 nM) it was 83.3%; in assay [2] (genotype: MTA1-KO, 10000 nM), 76.2%; in assay [2] (genotype: control, 16 nM), -6.57%. The viability inhibition was -15% in assay [2] (genotype: control, 80 nM); 45.6% in assay [2] (genotype: control, 400 nM); 74.4% in assay [2] (genotype: control, 2000 nM); 69.9% in assay [2] (genotype: control, 10000 nM).

In the case of `CNCc1cc(-c2ccccc2F)n(S(=O)(=O)c2cccnc2)c1` [Vonoprazan fumarate], the half-inhibitory concentration (IC50) in assay [1] (genotype: MTA1-KO) and in assay [1] (genotype: control) was greater than 10 µM throughout. Moreover, the viability inhibition in assay [2] (genotype: MTA1-KO, 16 nM) is 12%; in assay [2] (genotype: MTA1-KO, 80 nM), -19.8%; in assay [2] (genotype: MTA1-KO, 400 nM), -19.3%; in assay [2] (genotype: MTA1-KO, 2000 nM) it was -21.7%; in assay [2] (genotype: MTA1-KO, 10000 nM), -12.1%; in assay [2] (genotype: control, 16 nM), -12.5%. In addition, the viability inhibition in assay [2] (genotype: control, 80 nM) is -10.5%; in assay [2] (genotype: control, 400 nM) it was -14.4%; in assay [2] (genotype: control, 2000 nM) it was -16%; in assay [2] (genotype: control, 10000 nM), 11.8%.

As to `COc1cc(Nc2nc3ccccc3nc2NS(=O)(=O)c2ccc(NC(=O)c3ccc(C)c(OC)c3)cc2)cc(OC)c1` [Voxtalisib Analogue], the half-maximal inhibitory concentration (IC50) in assay [1] (genotype: MTA1-KO) and in assay [1] (genotype: control) was greater than 10 µM each time. In addition, the viability inhibition is -13.9% in assay [2] (genotype: MTA1-KO, 16 nM); -7.35% in assay [2] (genotype: MTA1-KO, 80 nM); -17% in assay [2] (genotype: MTA1-KO, 400 nM); -3.38% in assay [2] (genotype: MTA1-KO, 2000 nM); 24.9% in assay [2] (genotype: MTA1-KO, 10000 nM); -7.04% in assay [2] (genotype: control, 16 nM). For the same compound, the viability inhibition is -8.31% in assay [2] (genotype: control, 80 nM); -4.56% in assay [2] (genotype: control, 400 nM); -7.36% in assay [2] (genotype: control, 2000 nM); 5.96% in assay [2] (genotype: control, 10000 nM).
